The results in this text go back to ChEMBL document CHEMBL3507680, “University of Dundee, Gates Library screen for HepG2 cell viability”.

The data set can be described thus: Human HepG2 cell viability assay in 384 well format. Type of data set: toxicity, cell-based. Further details: dose 125 nL, time 70.5 hour; cytotoxicity at 70.5 h: concentration not given beside the values. The conditions noted are these: HepG2 cells, read-out: Inhibition.

As for `NCC(c1cccnc1)N1CCOCC1` (centres undefined), the cytotoxicity at 70.5 h is -4.26%.

In the case of `CCc1cnc(N2C[C@H]3C[C@H](C(=O)NC)[C@@H](C2)O3)nc1`, the cytotoxicity at 70.5 h was -1.27%. `Cn1cc(CN2CCc3ncn(C)c3C2COCc2cccnc2)cn1` (centres undefined): the cytotoxicity at 70.5 h is -0.736%. On to `CCC1=N[C@@]2(CC[C@@H]3CN(C(=O)NCC(C)C)C[C@@H]32)C(=O)N1CC1CC1`, for which the cytotoxicity at 70.5 h is -2.4%. Regarding `Cc1noc([C@@]23CCO[C@@H]2CCN(C(=O)CN(C)C)C3)n1`, the cytotoxicity at 70.5 h was -0.0937%. Regarding `O=C(c1ccsc1)N1CCc2c(CNc3nccs3)n[nH]c2C1`, the cytotoxicity at 70.5 h is -2.81%.

As to `Cc1nnc([C@H]2CC[C@@H]3[C@@H](CCN3Cc3c(C)noc3C)O2)o1`, the cytotoxicity at 70.5 h is -5.84%. Take `CN(C)CCOCC1CN(C(=O)[C@H]2CCCO2)Cc2ccnn2C1` (some centres undefined): the cytotoxicity at 70.5 h was -1.09%. As for `CN(C)C(=O)N1CCc2c(CNc3ncccn3)cncc2C1`, the figure is -2.83%; as for `CCS(=O)(=O)N1CCC2(CC(=O)N(c3cccc(C)c3)C2)C1` (centres undefined), -4.67%; as for `O=C(N[C@@H]1CN(c2ncccn2)[C@@H]2CCCO[C@@H]21)c1cnccn1`, -1.73%. The same measure for `O=C([C@H]1C[C@H]2OCC[C@H]2N(C(=O)C2CCOCC2)C1)N1CCCCO1`: -2.55%. With `CC(C)NC(=O)[C@@H]1CCO[C@@H]2CCN(c3ncccn3)C[C@H]21`, the cytotoxicity at 70.5 h was 0.612%. The same measure for `O=C([C@H]1C[C@H]2OCC[C@H]2N(Cc2ccncc2)C1)N1CCCCO1`: -0.173%. As to `O=C([C@H]1COC[C@H]2CN(Cc3ccco3)C[C@H]21)N1CCCO1`, the cytotoxicity at 70.5 h was 5.11%. Regarding `CCc1cnc(N2CC3(CCN(C(=O)c4ccoc4)C3)C2)nc1`, the cytotoxicity at 70.5 h was -1.44%.

With `COCC1CN(C(=O)CNC(C)=O)Cc2ncnn2C1` (centres undefined), the cytotoxicity at 70.5 h was -8.02%. As for `CC(=O)N1[C@H](Cn2cncn2)C[C@@H]2CN(S(C)(=O)=O)CC[C@@H]21`, the figure is -8.6%; as for `Cn1cc(CN2CC[C@H]3C[C@H](c4nc(C5CC5)cs4)O[C@@H]3C2)cn1`, -12.5%; as for `Cn1ccnc1CN1CCC2(COCCN(Cc3ccsc3)C2)C1` (centres undefined), -11.4%. In the case of `Cc1ccc2c(c1)CCC21CCN(C(=O)CO)CC1`, the cytotoxicity at 70.5 h is -8.48%.

Take `COCC1CN(Cc2ccc(C)o2)Cc2ncn(CC3CC3)c21` (centres undefined): the cytotoxicity at 70.5 h is -8.02%. As for `CCN1C(=O)C2(CCOCC2)c2cc(NC(=O)c3ccco3)ccc21`, the figure is -8.84%. Take `O=C(C1=CC2(CCNCC2)c2ccccc21)N1CCCC1`: the cytotoxicity at 70.5 h is -14.7%.

Regarding `O=C(c1cnccn1)N1CCN2C[C@H](OCc3ccccn3)C[C@H]2C1`, the cytotoxicity at 70.5 h was -10.5%. The same measure for `O=C(C1CCOCC1)N1CCc2ncnc(-c3ccc(F)cc3)c2CC1`: -11.3%; for `O=C(C1CCC1)N1CCC2(COCc3cnc(N4CCOCC4)nc32)C1` (centres undefined): 8.28%. `CN(C)CC(=O)N1Cc2nc(C(=O)NCc3ccncc3)oc2C1`: the cytotoxicity at 70.5 h was -14.7%. Turning to `COCCNC(=O)[C@@H]1CC[C@@H]2[C@@H](CCN2Cc2cnn(C)c2)O1`, the cytotoxicity at 70.5 h is -18.7%.

For `O=C(C1=CCCC1)N1CCO[C@H]2[C@@H](OCC3CC3)CC[C@@H]21`, the cytotoxicity at 70.5 h was -17.4%.

With `Cc1ccoc1C(=O)N1CC[C@H]2O[C@@H](C)C[C@H]2C1`, the cytotoxicity at 70.5 h is -10.2%. The same measure for `Cc1noc(C)c1CN1CC[C@H]2OCC[C@@H](C(=O)N3CCCO3)[C@@H]2C1`: -14.6%.

In the case of `CC(C)N(C)C(=O)C1=NOC2(CCN(C(=O)c3ccccn3)C2)C1` (centres undefined), the cytotoxicity at 70.5 h is -9.35%. As for `CC(=O)N1CCC2(CC1)CC(Oc1ccccc1)CO2` (centres undefined), the figure is -7.56%; as for `CC(C)N1CCOCC2(CN(Cc3ccco3)CCO2)C1` (centres undefined), -8.16%; as for `O=C(c1ccsc1)N1CCc2c(COCc3ccncc3)cncc2C1`, -9.93%.

On to `CN(C)C(=O)CN1CCC2(CC1)CN(S(C)(=O)=O)Cc1ccccc1O2`, for which the cytotoxicity at 70.5 h was -4.65%.

With `Cc1csc(C(Cc2cccs2)NCc2cc3c(cc2C)OCO3)n1` (centres undefined), the cytotoxicity at 70.5 h worked out at 17.6%. On to `CSCC[C@H]1CN2CCC[C@H]2CN1Cc1coc2ccc(C)cc2c1=O`, for which the cytotoxicity at 70.5 h amounted to 1.94%.

For the compound `CCn1ccc(C(=O)N2CCCC2c2nnc(-c3scnc3C)o2)n1` (centres undefined), the cytotoxicity at 70.5 h was -6.79%. As for `O=C(CCOc1ccccc1F)NC1CCCN(c2ccccn2)C1` (centres undefined), the cytotoxicity at 70.5 h is -5.44%. The same measure for `COc1cc(OC)cc(C(=O)N2CCOCC2c2[nH]ncc2C)c1` (centres undefined): 18%. As for `CCn1cc(C(=O)N(C)[C@@H]2CC[C@@H](N3CCCC3)[C@@H]2O)c(C)n1`, the figure is -5.26%; as for `Cc1n[nH]c(C)c1CCC(=O)N1CCC(O)(CN2CCN(C)CC2)C1` (centres undefined), -6.92%; as for `CN(C1CCCN(c2ccccn2)C1)S(C)(=O)=O` (centres undefined), -3.73%.

Turning to `Cc1ccn(CCC(=O)N2CCCC2c2nnc(-c3scnc3C)o2)n1` (centres undefined), the cytotoxicity at 70.5 h stood at 11.6%. The same measure for `Cc1ncsc1-c1nnc(C2CCCN2C(=O)Cn2cccn2)o1` (centres undefined): 3.13%. On to `CCn1ncc(CN2CCCC(n3c(=O)oc4ccccc43)C2)c1C` (centres undefined), for which the cytotoxicity at 70.5 h is -3.68%. The same measure for `Cn1cc([C@@H]2CN(S(C)(=O)=O)C[C@H]2N)c2ccncc21`: 19%; for `CN1CCCCC1c1cncc(Cl)n1` (centres undefined): -0.934%; for `c1ccc(NCc2cn3c(n2)CNCC3)nc1`: 2.18%.

Consider `Cc1nccn1CCC1CCNCC1`, for which the cytotoxicity at 70.5 h is -4.48%. Take `COCc1cnc2n1CCN(C1CCC1)C2C` (centres undefined): the cytotoxicity at 70.5 h is -2.01%. As for `CO[C@@H]1CCN(S(=O)(=O)c2cn(C)cn2)[C@H]1Cc1ccncc1`, the cytotoxicity at 70.5 h was found to be 4.82%. As for `COc1ncnc2c1CCN(Cc1cccs1)CC2`, the figure is -2.23%; as for `CN(C)C(=O)[C@@H]1CCO[C@@H]2CCN(c3ncccn3)C[C@@H]21`, -2.08%. On to `O=C(C1CC1)N1CCC[C@]2(C[C@@H](OCc3ccncc3)CO2)C1`, for which the cytotoxicity at 70.5 h was 0.889%. With `O=C(c1ccccc1)N1CCC[C@]2(C[C@@H](OCc3ccncc3)CO2)C1`, the cytotoxicity at 70.5 h was -4.9%.

With `CO[C@@H]1CCN(c2nnc(C)s2)C[C@@H]1Cc1ccccc1`, the cytotoxicity at 70.5 h is -2.42%. As for `CNC(=O)c1nc2c(s1)CCN(C(=O)c1cccnc1)CC2`, the figure is -0.11%; as for `Cc1ccc(CN2CCc3ncnc(C4CCOC4)c3CC2)s1` (centres undefined), 2.16%. As for `Cn1cc(CN2CCn3cc(CNC(=O)C4CCC4)nc3C2)cn1`, the figure is 2.26%; as for `Cc1ccc(C(=O)N2CCC3(CC2)NC(=O)CC3c2ccccc2)cn1` (centres undefined), 5.79%; as for `O=C1NC(c2ccccc2)=N[C@@]12CC[C@@H]1CN(Cc3ccccc3)C[C@@H]12`, 0.309%.

As to `O=S(=O)(c1cccs1)N1CCCn2nnc(CN3CCCCC3)c2C1`, the cytotoxicity at 70.5 h is 0.152%.

For `CC(=O)N1CC(=O)N(c2ccccc2)CC12CCN(Cc1cccs1)C2` (centres undefined), the cytotoxicity at 70.5 h is -5.96%. The same measure for `CN(C)CCN1C[C@@H]2CN(C(=O)c3ccsc3)C[C@@H]2C1=O`: -2.41%.

With `CN(C)Cc1cc(=O)n2c(n1)CN(C(=O)Cc1ccsc1)CCC2`, the cytotoxicity at 70.5 h was -12.5%.

Consider `CN1CCN(C(=O)Cc2cccc(F)c2)Cc2cccnc21`, for which the cytotoxicity at 70.5 h was -5.94%. Take `Cc1ccc2c(n1)N(C)CCN(C(=O)NC1CC1)C2`: the cytotoxicity at 70.5 h came to 25.2%. On to `CCN(C)c1ncnc2c1CCN(C(=O)N1CCCC1)CC2`, for which the cytotoxicity at 70.5 h is -12.4%. On to `CC(C)CN1CCC2(C=C(C(=O)N3CCCC3)c3ccccc32)CC1`, for which the cytotoxicity at 70.5 h is -15.8%. Turning to `O=C([C@@H]1CC[C@@H]2[C@@H](CCN2Cc2cccc(F)c2)O1)N1CCCCO1`, the cytotoxicity at 70.5 h amounted to 5.95%. As for `CCS(=O)(=O)N1CCOC2(CCCN(c3ccc(C)nn3)C2)C1` (centres undefined), the figure is -11.8%. On to `CN1CCN(C(=O)NC2CC2)Cc2cccnc21`, for which the cytotoxicity at 70.5 h amounted to 0.459%. On to `Cc1noc(C)c1CN1CC[C@H]2OCC[C@@H](C(=O)NCC3CC3)[C@@H]2C1`, for which the cytotoxicity at 70.5 h is -3.12%. On to `CC(C)n1cnc2c1C(C(=O)NCCC#N)N(Cc1ccccc1)CC2` (centres undefined), for which the cytotoxicity at 70.5 h is -16.7%.

In the case of `CCOCC1CN(C(=O)c2ccncc2)Cc2nn(C)cc21` (centres undefined), the cytotoxicity at 70.5 h is -18%. The same measure for `CN(C)c1ncc2c(n1)C1(CCN(CC3CC3)C1)COC2` (centres undefined): -8.15%; for `Cc1ccc(CN2CC3(CCN(C(=O)c4cscn4)C3)C2)s1`: -7.12%. As for `CS(=O)(=O)N1CCOCC2(CN(Cc3ccco3)CCO2)C1` (centres undefined), the figure is -3.82%. In the case of `Cc1ccc(C(=O)N2CCN3C[C@H](Oc4cccc(F)c4)C[C@H]3C2)cn1`, the cytotoxicity at 70.5 h was -2.95%. The same measure for `COCC1CN(Cc2cc(C)on2)Cc2cnn(C)c21` (centres undefined): -3.91%; for `Cn1ccnc1CN1CCC2(CC1)CC(Oc1cccnc1)C2`: 1.72%. As for `Cc1ccc(CN2CCCC3(COCCN(Cc4c[nH]nn4)C3)C2)o1` (centres undefined), the cytotoxicity at 70.5 h turned out to be 0.0506%. Take `CN1CCN(C(=O)c2nc3c(o2)CN(C(=O)c2cccnc2)C3)CC1`: the cytotoxicity at 70.5 h was -6.31%. The same measure for `COCC1CN(Cc2ccncc2)Cc2nnn(CC3CC3)c21` (centres undefined): -10.7%; for `COCCN1CCC2(CC1)CC(COC)N(c1ncccn1)C2` (centres undefined): -9.91%. On to `Fc1ccccc1CN1C[C@@H](OCc2ccncc2)[C@H]2OCCC[C@H]21`, for which the cytotoxicity at 70.5 h was -12.8%.

Take `CN1CCN(Cc2cn3c(n2)CN(C(=O)N2CCOCC2)CC3)CC1`: the cytotoxicity at 70.5 h is -3.86%. On to `CN(C)[C@@H]1CCN(c2ncccn2)[C@H]1Cc1ccncc1`, for which the cytotoxicity at 70.5 h was -5.48%. Take `c1cnc(NCc2noc3c2CN(CCN2CCCC2)CC3)nc1`: the cytotoxicity at 70.5 h was -7.61%. Take `CN(C)c1ncc(CN2CCC(O)(c3ccccc3F)CC2)cn1`: the cytotoxicity at 70.5 h was -2.07%. Consider `CC(C)N1CCCC1c1cc(CO)[nH]n1` (centres undefined), for which the cytotoxicity at 70.5 h was -4.38%.
